From patent publication US9889115B2, “Fitness assay and associated methods” (priority 1998, dated 2018)

How the values were obtained:
wild-type HIV protease = wild-type HIV protease (Human immunodeficiency virus type 1 group M subtype B, UniProt P04585); assay: biochemical
wild-type HIV = assay: wild-type antiretroviral activity (Table 4); conditions: Human immunodeficiency virus 1, read-out: ID50
HIV-1LAI = assay: PHA-PBMC assay, p24 Gag protein production; type: cell-based; conditions: Human immunodeficiency virus 1; HIV-1LAI, SI; PHA-PBMC, p24 (Table 3)
HIV-1BAL = assay: PHA-PBMC assay, p24 Gag protein production; type: cell-based; conditions: Human immunodeficiency virus 1; HIV-1BAL, NSI; PHA-PBMC, p24 (Table 3)
HIV-1ERS104pre = assay: PHA-PBMC assay, p24 Gag protein production; type: cell-based; conditions: Human immunodeficiency virus 1; HIV-1ERS104pre, SI; PHA-PBMC, p24
Experimental: (§1) The patient profiles are shown below in Table 2.
(§2) To determine protease inhibitory activity against multidrug resistant HIV, the IC50's were measured against a panel of clinically isolated mutant HIV isolates.
(§3) All drug sensitivities were performed in triplicate. In order to determine whether the HIV isolates were syncitium inducing (SI) or non-syncitium inducing (NSI), an aliquot of viral stock supernatant, containing 100 TCID50, was cultured with 1×10^5 MT-2 cells in a 12-well plate. Cultures were maintained for four weeks and were examined for syncytium formation twice a week.

[1] = test system: multidrug-resistant HIV-1 clinical isolate, patient 1; assay: PHA-PBMC assay, p24 Gag protein production; type: cell-based; conditions: Human immunodeficiency virus 1; Patient/Isolate code 1; PHA-PBMC, p24
Experimental: as §1, §2, §3

[2] = test system: multidrug-resistant HIV-1 clinical isolate, patient 2; assay: PHA-PBMC assay, p24 Gag protein production; type: cell-based; conditions: Human immunodeficiency virus 1; Patient/Isolate code 2; PHA-PBMC, p24
Experimental: as §1, §2, §3

[3] = test system: multidrug-resistant HIV-1 clinical isolate, patient 3; assay: PHA-PBMC assay, p24 Gag protein production; type: cell-based; conditions: Human immunodeficiency virus 1; Patient/Isolate code 3; PHA-PBMC, p24
Experimental: as §1, §2, §3

[4] = test system: multidrug-resistant HIV-1 clinical isolate, patient 4; assay: PHA-PBMC assay, p24 Gag protein production; type: cell-based; conditions: Human immunodeficiency virus 1; Patient/Isolate code 4; PHA-PBMC, p24
Experimental: as §1, §2, §3

[5] = test system: multidrug-resistant HIV-1 clinical isolate, patient 5; assay: PHA-PBMC assay, p24 Gag protein production; type: cell-based; conditions: Human immunodeficiency virus 1; Patient/Isolate code 5; PHA-PBMC, p24
Experimental: as §1, §2, §3

[6] = test system: multidrug-resistant HIV-1 clinical isolate, patient 6; assay: PHA-PBMC assay, p24 Gag protein production; type: cell-based; conditions: Human immunodeficiency virus 1; Patient/Isolate code 6; PHA-PBMC, p24
Experimental: as §1, §2, §3

[7] = test system: multidrug-resistant HIV-1 clinical isolate, patient 7; assay: PHA-PBMC assay, p24 Gag protein production; type: cell-based; conditions: Human immunodeficiency virus 1; Patient/Isolate code 7; PHA-PBMC, p24
Experimental: as §1, §2, §3

[8] = test system: multidrug-resistant HIV-1 clinical isolate, patient 8; assay: PHA-PBMC assay, p24 Gag protein production; type: cell-based; conditions: Human immunodeficiency virus 1; Patient/Isolate code 8; PHA-PBMC, p24
Experimental: as §1, §2, §3

[9] = test system: multidrug-resistant HIV-1 clinical isolate, patient 10; assay: microbe, parasite or virus in culture; type: cell-based; conditions: Human immunodeficiency virus 1; Patient Isolate 10
Experimental: (§4) The mutant multidrug-resistant HIV-1 strains corresponding to each patient, numbered 9-35, were genetically analyzed in terms of the nucleic acid sequences of the protease (PR) and a portion of the reverse transcriptase (RT) genes from which mutations in these enzymes were determined. The mutations in the protease and reverse transcriptase of the multidrug-resistant viruses isolated from each patient are shown below in Table 9b.

[10] = test system: multidrug-resistant HIV-1 clinical isolate, patient 11; assay: microbe, parasite or virus in culture; type: cell-based; conditions: Human immunodeficiency virus 1; Patient Isolate 11
Experimental: as §4

[11] = test system: multidrug-resistant HIV-1 clinical isolate, patient 12; assay: microbe, parasite or virus in culture; type: cell-based; conditions: Human immunodeficiency virus 1; Patient Isolate 12
Experimental: as §4

[12] = test system: multidrug-resistant HIV-1 clinical isolate, patient 13; assay: microbe, parasite or virus in culture; type: cell-based; conditions: Human immunodeficiency virus 1; Patient Isolate 13
Experimental: as §4

[13] = test system: multidrug-resistant HIV-1 clinical isolate, patient 14; assay: microbe, parasite or virus in culture; type: cell-based; conditions: Human immunodeficiency virus 1; Patient Isolate 14
Experimental: as §4

[14] = test system: multidrug-resistant HIV-1 clinical isolate, patient 15; assay: microbe, parasite or virus in culture; type: cell-based; conditions: Human immunodeficiency virus 1; Patient Isolate 15
Experimental: as §4

[15] = test system: multidrug-resistant HIV-1 clinical isolate, patient 16; assay: microbe, parasite or virus in culture; type: cell-based; conditions: Human immunodeficiency virus 1; Patient Isolate 16
Experimental: as §4

[16] = test system: multidrug-resistant HIV-1 clinical isolate, patient 17; assay: microbe, parasite or virus in culture; type: cell-based; conditions: Human immunodeficiency virus 1; Patient Isolate 17
Experimental: as §4

[17] = test system: multidrug-resistant HIV-1 clinical isolate, patient 18; assay: microbe, parasite or virus in culture; type: cell-based; conditions: Human immunodeficiency virus 1; Patient Isolate 18
Experimental: as §4

[18] = test system: multidrug-resistant HIV-1 clinical isolate, patient 19; assay: microbe, parasite or virus in culture; type: cell-based; conditions: Human immunodeficiency virus 1; Patient Isolate 19
Experimental: as §4

[19] = test system: multidrug-resistant HIV-1 clinical isolate, patient 20; assay: microbe, parasite or virus in culture; type: cell-based; conditions: Human immunodeficiency virus 1; Patient Isolate 20
Experimental: as §4

[20] = test system: multidrug-resistant HIV-1 clinical isolate, patient 21; assay: microbe, parasite or virus in culture; type: cell-based; conditions: Human immunodeficiency virus 1; Patient Isolate 21
Experimental: as §4

[21] = test system: multidrug-resistant HIV-1 clinical isolate, patient 23; assay: microbe, parasite or virus in culture; type: cell-based; conditions: Human immunodeficiency virus 1; Patient Isolate 23
Experimental: as §4

[22] = test system: multidrug-resistant HIV-1 clinical isolate, patient 27; assay: microbe, parasite or virus in culture; type: cell-based; conditions: Human immunodeficiency virus 1; Patient Isolate 27
Experimental: as §4

[23] = test system: multidrug-resistant HIV-1 clinical isolate, patient 28; assay: microbe, parasite or virus in culture; type: cell-based; conditions: Human immunodeficiency virus 1; Patient Isolate 28
Experimental: as §4

[24] = test system: multidrug-resistant HIV-1 clinical isolate, patient 29; assay: microbe, parasite or virus in culture; type: cell-based; conditions: Human immunodeficiency virus 1; Patient Isolate 29
Experimental: as §4

[25] = test system: multidrug-resistant HIV-1 clinical isolate, patient 30; assay: microbe, parasite or virus in culture; type: cell-based; conditions: Human immunodeficiency virus 1; Patient Isolate 30
Experimental: as §4

[26] = test system: multidrug-resistant HIV-1 clinical isolate, patient 31; assay: microbe, parasite or virus in culture; type: cell-based; conditions: Human immunodeficiency virus 1; Patient Isolate 31
Experimental: as §4

[27] = test system: multidrug-resistant HIV-1 clinical isolate, patient 32; assay: microbe, parasite or virus in culture; type: cell-based; conditions: Human immunodeficiency virus 1; Patient Isolate 32
Experimental: as §4

[28] = test system: multidrug-resistant HIV-1 clinical isolate, patient 33; assay: microbe, parasite or virus in culture; type: cell-based; conditions: Human immunodeficiency virus 1; Patient Isolate 33
Experimental: as §4

[29] = test system: multidrug-resistant HIV-1 clinical isolate, patient 35; assay: microbe, parasite or virus in culture; type: cell-based; conditions: Human immunodeficiency virus 1; Patient Isolate 35
Experimental: as §4

[30] = test system: multidrug-resistant HIV-1 clinical isolate, patient 9; assay: microbe, parasite or virus in culture; type: cell-based; conditions: Human immunodeficiency virus 1; Patient Isolate 9
Experimental: as §4

[31] = test system: multidrug-resistant HIV-1 clinical isolate, patient 22; assay: IC50 against multidrug-resistant clinical isolates (Table 9a); type: cell-based; conditions: Human immunodeficiency virus 1
Experimental: as §4

[32] = test system: multidrug-resistant HIV-1 clinical isolate, patient 34; assay: as above; type: cell-based; conditions: Human immunodeficiency virus 1
Experimental: as §4

wild-type HIV-1 (WT) = assay: IC50 against wild-type HIV-1 (Table 9a); type: cell-based; conditions: Human immunodeficiency virus 1; (WT)
[33] = test system: multidrug-resistant strains of HIV-1; assay: PHA-PBMC p24 assay, panel of eight multidrug-resistant clinical isolates; type: cell-based; conditions: eight multidrug-resistant clinical isolates of Table 3
Experimental: as §1, §2, §3

Which Ki (wild-type HIV protease) does the source give for `COc1ccc(S(=O)(=O)N(CC(C)C)CC(O)C(Cc2ccccc2)NC(=O)OC2COC3OCCCC23)cc1` (centres unmarked) here?
The Ki was 0.0022 µM.

What about the IC50 (wild-type HIV) of the same compound?
Its IC50 is 0.0045 µM.

For `Cc1ccc(S(=O)(=O)N(CC(C)C)CC(O)C(Cc2ccccc2)NC(=O)OC2COC3OCCC23)cc1` (centres unmarked), which Ki (wild-type HIV protease) is on record?
Its Ki is 0.0012 µM.

And the IC50 (wild-type HIV)?
The IC50 was 0.0035 µM.

What does the source list for `CC(C)c1nc(CN(C)C(=O)N[C@H](C(=O)N[C@@H](Cc2ccccc2)C[C@H](O)[C@H](Cc2ccccc2)NC(=O)OCc2cncs2)C(C)C)cs1` [RTV, Ritonavir]?
IC50 (HIV-1LAI): 0.0047 µM; IC50 (HIV-1BAL): 0.018 µM; IC50 (HIV-1ERS104pre): 0.055 µM; IC50 [1]: > 1 µM; IC50 [2]: > 1 µM; IC50 [3]: > 1 µM; IC50 [4]: > 1 µM; IC50 [5]: > 1 µM; IC50 [6]: > 1 µM; IC50 [7]: > 1 µM; IC50 [8]: > 1 µM; IC50 [9]: 2.03 µM; IC50 [10]: 0.01 µM; IC50 [11]: 2.47 µM; IC50 [12]: 1.64 µM; IC50 [13]: 0.04 µM; IC50 [14]: 1.14 µM; IC50 [15]: 1.34 µM; IC50 [16]: 0.87 µM; IC50 [17]: 3.02 µM; IC50 [18]: 2.94 µM; IC50 [19]: 1.9 µM; IC50 [20]: 2.18 µM; IC50 [21]: 1.82 µM; IC50 [22]: 2.97 µM; IC50 [23]: 2.66 µM; IC50 [24]: 0.36 µM; IC50 [25]: 1.03 µM; IC50 [26]: 0.85 µM; IC50 [27]: 0.37 µM; IC50 [28]: 0.18 µM; IC50 [29]: 2.6 µM; IC50 [30]: 0.53 µM; IC50 [31]: 0.56 µM; IC50 [32]: 3.38 µM; IC50 (wild-type HIV-1 (WT)): 0.019 µM; potency against the multidrug-resistant strains (in words) [33]: virtually inactive
